Source: ChEMBL document CHEMBL1201862, “PubChem BioAssay data set” (2004)
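Briefly, cells in 96-well plates were exposed to five compound concentrations for 48 h, and endpoints were estimated by linear interpolation. At the GI50, growth is halved.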 Active and inactive are the calls of the source. Cut-off read from the data, not from the text of the source: active = GI50 up to about 1.1 µM and inactive = higher.

Key:
Experiment in all cases: DTP human tumour cell line panel, 48 h
BT-549 = system: BT-549
786-0 = system: 786-0
Hs-578T = system: Hs-578T
NCI-H23 = system: NCI-H23
MDA-MB-435 = system: MDA-MB-435
K562 = system: K562
LOX IMVI = system: LOX IMVI
PC-3 = system: PC-3
HCT-116 = system: HCT-116
T47D = system: T47D
UACC-257 = system: UACC-257
Malme-3M = system: Malme-3M
SR = system: SR
MDA-N = system: MDA-N
NCI/ADR-RES = system: NCI/ADR-RES
MDA-MB-231 = system: MDA-MB-231
DU-145 = system: DU-145
MCF7 = system: MCF7
SF-539 = system: SF-539

Measured: GI50

Nc1ccc(S(=O)(=O)c2ccc(NCN3C(=O)NC(=O)C(=O)C3=O)cc2)cc1 [ALLANTODAPSONE]
inactive: BT-549 > 100 µM | 786-0 > 100 µM | Hs-578T > 100 µM | NCI-H23 > 100 µM | MDA-MB-435 > 100 µM | K562 > 100 µM | LOX IMVI > 100 µM | PC-3 > 100 µM | HCT-116 > 100 µM | T47D > 100 µM | UACC-257 > 100 µM | Malme-3M > 100 µM | SR > 100 µM | MDA-N > 100 µM | NCI/ADR-RES > 100 µM | MDA-MB-231 > 100 µM

CCN1CCC(O)(c2ccc(O)cc2)C(C(=O)c2ccc(O)cc2)C1 (stereo unspecified)
inactive: Hs-578T 13.3 µM | NCI-H23 20.3 µM | MDA-MB-435 17.3 µM | DU-145 27.6 µM | K562 12 µM | LOX IMVI 12.5 µM | PC-3 > 10 µM | HCT-116 20.3 µM | MCF7 3.18 µM | T47D 8.77 µM | UACC-257 13.7 µM | Malme-3M 20.5 µM | SR 16.5 µM | NCI/ADR-RES 26.3 µM | MDA-MB-231 16.3 µM

CCOC(=O)c1c(Cl)nc2ccccc2c1N=[N+]=[N-]
inactive: BT-549 16.4 µM | Hs-578T 24.9 µM | NCI-H23 27.7 µM | MDA-MB-435 21.1 µM | K562 69.5 µM | LOX IMVI 20.5 µM | PC-3 32.2 µM | HCT-116 20.7 µM | SF-539 18.6 µM | T47D 22.7 µM | UACC-257 21.8 µM | Malme-3M 34.8 µM | SR 32.7 µM | MDA-N 21 µM | MDA-MB-231 16.2 µM

N#CC1(C#N)C(c2ccccc2)NC23CCCCC2C1(C#N)C(=O)N3 (stereo unspecified)
inactive: BT-549 > 100 µM | 786-0 > 100 µM | NCI-H23 > 100 µM | MDA-MB-435 > 100 µM | DU-145 > 100 µM | K562 > 100 µM | PC-3 > 100 µM | HCT-116 > 100 µM | MCF7 > 100 µM | SF-539 > 100 µM | T47D > 100 µM | UACC-257 > 100 µM | Malme-3M > 100 µM | SR 57.8 µM | MDA-N > 100 µM | NCI/ADR-RES > 100 µM | MDA-MB-231 > 100 µM

CSc1nc2c(nc(N)n2C2OCC(O)C(O)C2O)c(=O)[nH]1 (stereo unspecified)
inactive: 786-0 > 100 µM | NCI-H23 > 100 µM | K562 > 100 µM | LOX IMVI > 100 µM | HCT-116 > 100 µM | SF-539 > 100 µM | UACC-257 > 100 µM | Malme-3M > 100 µM | SR > 100 µM

C[Si](C)(N[Si](C)(C)OCCc1ccccc1)OCCc1ccccc1
inactive: BT-549 > 100 µM | 786-0 > 100 µM | NCI-H23 > 100 µM | MDA-MB-435 > 100 µM | DU-145 > 100 µM | LOX IMVI > 100 µM | PC-3 > 100 µM | HCT-116 > 100 µM | MCF7 > 100 µM | T47D > 100 µM | UACC-257 > 100 µM | MDA-N > 100 µM | NCI/ADR-RES > 100 µM

CC(=O)c1ccc(NC(=O)/C(CC(=O)/C=C/c2ccccc2)=N/NC(N)=S)cc1
inactive: BT-549 > 100 µM | 786-0 > 100 µM | Hs-578T > 100 µM | NCI-H23 60 µM | MDA-MB-435 > 100 µM | K562 75.3 µM | LOX IMVI > 100 µM | PC-3 > 100 µM | HCT-116 > 100 µM | MCF7 34.4 µM | SF-539 > 100 µM | T47D 32.6 µM | UACC-257 > 100 µM | Malme-3M > 100 µM | SR > 100 µM | MDA-N > 100 µM | NCI/ADR-RES 50 µM | MDA-MB-231 > 100 µM

O=C(Nc1nccs1)c1c(O)nc2sccn2c1=O
inactive: Hs-578T > 10 µM | NCI-H23 > 10 µM | MDA-MB-435 > 10 µM | DU-145 > 10 µM | LOX IMVI > 10 µM | PC-3 > 10 µM | HCT-116 > 10 µM | MCF7 > 10 µM | SF-539 > 10 µM | T47D > 10 µM | Malme-3M > 10 µM | SR > 10 µM | MDA-N > 10 µM | NCI/ADR-RES > 10 µM | MDA-MB-231 > 10 µM

CC(C)=CCC/C(C)=C/CC/C(C)=C/C(O)c1ccccc1 (stereo unspecified)
inactive: NCI-H23 22.7 µM | K562 61.4 µM | LOX IMVI 19.6 µM | HCT-116 17.9 µM | UACC-257 18.2 µM | Malme-3M 19.2 µM | SR 20.7 µM

CC(Cc1ccccc1)NC1=NCCO1 (stereo unspecified)
inactive: Hs-578T 29.3 µM | NCI-H23 24.9 µM | LOX IMVI 18.2 µM | PC-3 34.8 µM | HCT-116 18 µM | MCF7 > 100 µM | SF-539 14 µM | T47D 35.1 µM | SR 42.8 µM | MDA-N 25.9 µM | MDA-MB-231 16.2 µM
